This passage reports melting point, pest or weed control and inhibition results from patent US10653146B2, “Microbiocidal oxadiazole derivatives” (SYNGENTA PARTICIPATIONS AG, priority 2016, dated 2020).

The subject of data set [1] is Puccinia recondite f. Sp. Tritici. In words: Fungicidal activity against Puccinia recondite f. sp. tritici / wheat / leaf disc curative (brown rust). Conditions: foliar, 200 ppm in the applied formulation, wheat leaf segments cv. Kanzler, applied 1 day after inoculation, assessed 6 to 8 days after application, read-out: disease control compared to untreated control leaf disks. The format is in vivo. How it is done:
(§1) Leaf disks or leaf segments of various plant species are cut from plants grown in a greenhouse. The cut leaf disks or segments are placed in multiwell plates (24-well format) onto water agar. The leaf disks are sprayed with a test solution before (preventative) or after (curative) inoculation. Compounds to be tested are prepared as DMSO solutions (max. 10 mg/ml) which are diluted to the appropriate concentration with 0.025% Tween20 just before spraying. The inoculated leaf disks or segments are incubated under defined conditions (temperature, relative humidity, light, etc.) according to the respective test system. A single evaluation of disease level is carried out 3 to 14 days after inoculation, depending on the pathosystem. Percent disease control relative to the untreated check leaf disks or segments is then calculated.
Wheat leaf segments cv. Kanzler are placed on agar in multiwell plates (24-well format). The leaf segments are then inoculated with a spore suspension of the fungus. Plates were stored in darkness at 19° C. and 75% relative humidity. The formulated test compound diluted in water was applied 1 day after inoculation. The leaf segments were incubated at 19° C. and 75% relative humidity under a light regime of 12 hours light/12 hours darkness in a climate cabinet and the activity of a compound was assessed as percent disease control compared to untreated when an appropriate level of disease damage appears in untreated check leaf segments (6 to 8 days after application).
(§2) The following compounds at 200 ppm in the applied formulation give at least 80% disease control in this test when compared to untreated control leaf disks under the same conditions, which show extensive disease development.

The test system of data set [2] is Puccinia recondita f. Sp. Tritici. In words: Fungicidal activity against Puccinia recondita f. sp. tritici / wheat / leaf disc preventative (brown rust). The format is in vivo. The settings on record: foliar, 200 ppm in the applied formulation, wheat leaf segments cv. Kanzler, inoculated 1 day after application, assessed 7 to 9 days after application, read-out: disease control compared to untreated control leaf disks. As for the experimental part: as §1, with “calculated. Wheat leaf segments cv. Kanzler were placed on agar in multiwell plates (24-well format) and sprayed with the formulated test compound diluted in water. The leaf disks were inoculated with a spore suspension of the fungus 1 day after application. The inoculated leaf segments were incubated at 19° C. and 75% relative humidity (rh) under a light regime of 12 hours light/12 hours darkness in a climate cabinet and the activity of a compound was assessed as percent disease control compared to untreated when an appropriate level of disease damage appears in untreated check leaf segments (7 to 9 days after application). The following compounds at 200 ppm in the applied formulation give at least 80% disease control in this test when compared to untreated control leaf disks under the same conditions, which show extensive disease development.” for “calculated.”

Data set [3] relates to Glomerella lagenarium (Colletotrichum lagenarium). In words: Fungicidal activity against Glomerella lagenarium (Colletotrichum lagenarium) liquid culture / cucumber / preventative (anthracnose). The format is cell-based. The settings on record: Colletotrichum orbiculare; 20 ppm in the applied formulation; liquid culture in PDB, 24° C.; 3 to 4 days after application; read-out: disease control compared to untreated control (inhibition of growth measured photometrically). As for the experimental part:
Mycelia fragments or conidia suspensions of a fungus prepared either freshly from liquid cultures of the fungus or from cryogenic storage, are directly mixed into nutrient broth. DMSO solutions of the test compound (max. 10 mg/ml) are diluted with 0.025% Tween20 by a factor of 50 and 10 μl of this solution is pipetted into a microtiter plate (96-well format). The nutrient broth containing the fungal spores/mycelia fragments is then added to give an end concentration of the tested compound. The test plates are incubated in the dark at 24° C. and 96% relative humidity. The inhibition of fungal growth is determined photometrically after 2 to 7 days, depending on the pathosystem, and percent antifungal activity relative to the untreated check is calculated.
Conidia of the fungus from cryogenic storage are directly mixed into nutrient broth (PDB—potato dextrose broth). After placing a (DMSO) solution of test compound into a microtiter plate (96-well format), the nutrient broth containing the fungal spores is added. The test plates are incubated at 24° C. and the inhibition of growth is measured photometrically 3 to 4 days after application.
The following compounds at 20 ppm in the applied formulation give at least 80% disease control in this test when compared to untreated control under the same conditions, which show extensive disease development.

The subject of data set [4] is Phakopsora pachyrhizi. In words: Fungicidal activity against Phakopsora pachyrhizi / soybean / leaf disc preventative (Asian soybean rust). The format is in vivo. The settings on record: foliar, 200 ppm in the applied formulation, soybean leaf disks, inoculated one day after application, assessed 12 to 14 days after application, read-out: disease control compared to untreated control leaf disks. How it is done:
as §1
Soybean leaf disks are placed on water agar in multiwell plates (24-well format) and sprayed with the formulated test compound diluted in water. One day after application leaf discs are inoculated by spraying a spore suspension on the lower leaf surface. After an incubation period in a climate cabinet of 24-36 hours in darkness at 20° C. and 75% rh leaf disc are kept at 20° C. with 12 h light/day and 75% rh. The activity of a compound is assessed as percent disease control compared to untreated when an appropriate level of disease damage appears in untreated check leaf disks (12 to 14 days after application).
as §2

The melting point is the temperature, or range, at which the solid turns liquid. As a reminder, the inhibition is the share of the control response that was lost under treatment. `Cl.NCCNC(=O)C(=O)c1ccc(-c2noc(C(F)(F)F)n2)cc1` [Compound 1.9, 2-[[2-oxo-2-[4-[5-(trifluoromethyl)-1,2,4-oxadiazol-3-yl]phenyl]acet-yl]amino]ethyl-ammonium; chloride] gave a melting point of 213 to 214 °C. For the same molecule, in data set [1], the pest or weed control at 200 ppm is at least 80%. Further, the pest or weed control at 200 ppm in data set [2] was at least 80%. In data set [3], the inhibition at 20 ppm is at least 80%.

In the case of `CCCCNC(=O)C(=O)c1ccc(-c2noc(C(F)(F)F)n2)cc1` [Compound 1.12, N-butyl-2-oxo-2-[4-[5-(trifluoromethyl)-1,2,4-oxadiazol-3-yl]phenyl]acetamide], the melting point lay within 65.1 to 68.2 °C. Moreover, the pest or weed control at 200 ppm in data set [1] was at least 80%. In addition, the pest or weed control at 200 ppm in data set [2] was at least 80%. Moreover, the inhibition at 20 ppm in data set [3] is at least 80%.

The molecule `CC(C)NC(=O)C(=O)c1ccc(-c2noc(C(F)(F)F)n2)cc1` [Compound 1.13, N-isopropyl-2-oxo-2-[4-[5-(trifluoromethyl)-1,2,4-oxadiazol-3-yl]phenyl]acetamide] gave a melting point of 96 to 97.7 °C. For the same molecule, in data set [1], the pest or weed control at 200 ppm was at least 80%. Also, the pest or weed control at 200 ppm in data set [2] is at least 80%. In addition, in data set [3], the inhibition at 20 ppm is at least 80%.

The molecule `N#CCNC(=O)C(=O)c1ccc(-c2noc(C(F)(F)F)n2)cc1` [Compound 1.14, N-(cyanomethyl)-2-oxo-2-[4-[5-(trifluoromethyl)-1,2,4-oxadiazol-3-yl]phenyl]acetamide] displayed a melting point of 143.6 to 147.6 °C. Besides, in data set [1], the pest or weed control at 200 ppm was at least 80%. In addition, in data set [2], the pest or weed control at 200 ppm was at least 80%. The inhibition at 20 ppm in data set [3] is at least 80%.

On to `CC(C)CNC(=O)C(=O)c1ccc(-c2noc(C(F)(F)F)n2)cc1` [Compound 1.15, N-isobutyl-2-oxo-2-[4-[5-(trifluoromethyl)-1,2,4-oxadiazol-3-yl]phenyl]acetamide], for which the melting point is 83 to 85.3 °C. Besides, in data set [1], the pest or weed control at 200 ppm is at least 80%. The pest or weed control at 200 ppm in data set [2] was at least 80%. In addition, the inhibition at 20 ppm in data set [3] is at least 80%.

With `O=C(NC1CC1)C(=O)c1ccc(-c2noc(C(F)(F)F)n2)cc1` [Compound 1.16, N-cyclopropyl-2-oxo-2-[4-[5-(trifluoromethyl)-1,2,4-oxadiazol-3-yl]phenyl]acetamide], the melting point was 113.1 to 116 °C. Further, the pest or weed control at 200 ppm in data set [1] was at least 80%. Also, the pest or weed control at 200 ppm in data set [2] was at least 80%. The inhibition at 20 ppm in data set [3] was at least 80%.

`CNC(=O)C(=O)c1ccc(-c2noc(C(F)(F)F)n2)cc1` [Compound 1.17, N-methyl-2-oxo-2-[4-[5-(trifluoromethyl)-1,2,4-oxadiazol-3-yl]phenyl]acetamide] came in with a melting point of 128.1 to 130.8 °C. Moreover, the pest or weed control at 200 ppm in data set [1] was at least 80%. Moreover, in data set [2], the pest or weed control at 200 ppm is at least 80%. Also, the inhibition at 20 ppm in data set [3] was at least 80%.

For the molecule `NC(=O)C(=O)c1ccc(-c2noc(C(F)(F)F)n2)cc1` [Compound 1.18, 2-oxo-2-[4-[5-(trifluoromethyl)-1,2,4-oxadiazol-3-yl]phenyl]acetamide], the melting point lay within 146.7 to 149.7 °C. Also, the pest or weed control at 200 ppm in data set [1] is at least 80%. Besides, in data set [2], the pest or weed control at 200 ppm was at least 80%. The inhibition at 20 ppm in data set [3] was at least 80%.

Regarding `CN(C)NC(=O)C(=O)c1ccc(-c2noc(C(F)(F)F)n2)cc1` [Compound 1.19, N′,N′-dimethyl-2-oxo-2-[4-[5-(trifluoromethyl)-1,2,4-oxadiazol-3-yl]phenyl]aceto-hydrazide], the melting point is 134 to 138 °C. Further, in data set [1], the pest or weed control at 200 ppm is at least 80%. Moreover, in data set [2], the pest or weed control at 200 ppm was at least 80%. The inhibition at 20 ppm in data set [3] was at least 80%.

Consider `O=C(C(=O)N1CCCC1)c1ccc(-c2noc(C(F)(F)F)n2)cc1` [Compound 1.20, 1-pyrrolidin-1-yl-2-[4-[5-(trifluoromethyl)-1,2,4-oxadiazol-3-yl]phenyl]ethane-1,2-dione], for which the melting point was 104 to 110 °C. Also, in data set [1], the pest or weed control at 200 ppm was at least 80%. The pest or weed control at 200 ppm in data set [2] was at least 80%. Moreover, the inhibition at 20 ppm in data set [3] is at least 80%.

In the case of `O=C(NCc1ccccc1F)C(=O)c1ccc(-c2noc(C(F)(F)F)n2)cc1` [Compound 1.26, N-[(2-fluorophen-yl)methyl]-2-oxo-2-[4-[5-(trifluoromethyl)-1,2,4-oxadiazol-3-yl]phenyl]acetamide], the melting point lay within 84 to 86 °C. Also, the pest or weed control at 200 ppm in data set [1] was at least 80%. The pest or weed control at 200 ppm in data set [2] was at least 80%. Besides, the inhibition at 20 ppm in data set [3] is at least 80%.

With `O=C(NC1COC1)C(=O)c1ccc(-c2noc(C(F)(F)F)n2)cc1` [Compound 1.27, N-(oxetan-3-yl)-2-oxo-2-[4-[5-(trifluoromethyl)-1,2,4-oxadiazol-3-yl]phenyl]acetamide], the melting point lay within 131 to 136 °C. The pest or weed control at 200 ppm in data set [1] was at least 80%. In addition, the pest or weed control at 200 ppm in data set [2] is at least 80%. Further, in data set [3], the inhibition at 20 ppm was at least 80%.

The molecule `O=C(C(=O)N1CCOCC1)c1ccc(-c2noc(C(F)(F)F)n2)cc1` [Compound 1.35, 1-morpholino-2-[4-[5-(trifluoromethyl)-1,2,4-oxadiazol-3-yl]phenyl]ethane-1,2-dione] registered a melting point of 140 to 144 °C. In addition, the pest or weed control at 200 ppm in data set [1] was at least 80%. For the same molecule, the pest or weed control at 200 ppm in data set [2] is at least 80%. For the same molecule, the inhibition at 20 ppm in data set [3] was at least 80%.

In turn, `COC(CNC(=O)C(=O)c1ccc(-c2noc(C(F)(F)F)n2)cc1)OC` [Compound 1.38, N-(2,2-dimethoxyethyl)-2-oxo-2-[4-[5-(trifluoromethyl)-1,2,4-oxadiazol-3-yl]phenyl]acetamide] displayed a melting point of 88 to 89 °C. Besides, the pest or weed control at 200 ppm in data set [1] is at least 80%. Further, in data set [2], the pest or weed control at 200 ppm is at least 80%. Further, in data set [3], the inhibition at 20 ppm was at least 80%.

For the molecule `CCCNC(=O)C(=O)c1ccc(-c2noc(C(F)(F)F)n2)cc1` [Compound 1.42, 2-oxo-N-propyl-2-[4-[5-(trifluoromethyl)-1,2,4-oxadiazol-3-yl]phenyl]acetamide], the pest or weed control at 200 ppm in data set [1], in data set [2] and in data set [4] was at least 80% throughout. Further, the inhibition at 20 ppm in data set [3] was at least 80%.
